Here are results for two compounds from ChEMBL document CHEMBL3751696, “Mollisolactones A and B, novel dinormonoterpenes from the soft coral Sinularia mollis” (2016).

For test [1], the system named is Human betaherpesvirus 5. The test is described as follows: Antiviral activity against Human cytomegalovirus at 50 ug/ml. Type of test: functional, organism-based.
Test [2] relates to P388. The test is described as follows: Cytotoxicity against mouse P388 cells by MTT assay. In kind it is functional. The conditions noted are these: read-out: ED50 (the source's name).
Test [3] concerns HT-29. Description: Cytotoxicity against human HT-29 cells by MTT assay. In kind it is functional. The conditions noted are these: read-out: ED50 (the source's name).
The test system of test [4] is A549. The test is described as follows: Cytotoxicity against human A549 cells by MTT assay. In kind it is functional. The conditions noted are these: read-out: ED50 (the source's name).

≈ marks a conversion by molar mass, not a printed value. Calls of active or inactive are those of the source. The rule behind the calls is not given here.

Regarding `CC(=O)CC1C=C(C)C(=O)O1` (stereo not drawn), the outcome in test [1] was inactive. Besides, the EC50 in test [2] was determined as 52 µg/mL (≈ 337 µM); in test [3], 58 µg/mL (≈ 376 µM); in test [4] it was 56 µg/mL (≈ 363 µM).

On to `CC(=O)CC1OC(=O)C=C1C` (stereo not drawn), for which the outcome in test [1] was inactive. The EC50 was 56 µg/mL (≈ 363 µM) in test [2], 51 µg/mL (≈ 331 µM) in test [3] and 53 µg/mL (≈ 344 µM) in test [4].
